The supplement of paper PMC7017272
± gives the standard deviation of the averaged measurements.

How the values were obtained:
Conditions in all cases: treatment time: 3 days
UT-SCC-24A [1] = assay: maximal % inhibition of viability relative to DMSO; higher = stronger effect
Experimental: (§1)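 HNSCC cell lines (500 cells/well, 384-well) were cultured on plastic, on top of (2D) or embedded (3D) in Matrigel or human leiomyoma matrix Myogel (500 ug/mL; Myogel 3D mixed with rat collagen I). Cells were treated for 3 days with 5 ten-fold concentrations of each drug, and viability was read by CellTiter-Glo. Viability was normalised to DMSO (0% inhibition) and 100 uM benzethonium chloride (100% inhibition) controls and fitted with the FIMM DSRT pipeline to give IC50 (nM), maximal % inhibition and the drug sensitivity score (DSS). Suffixes _1/_2/_3 on drug names are replicates.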

UT-SCC-106A [2] = assay: drug sensitivity score (DSS); higher = more sensitive; extreme values may be limits of the assay
Procedure, shortened: (§2)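 The FIMM pipeline was used to fit percent-inhibition dose–response curves, giving IC50, maximal inhibition and drug sensitivity score. Input data were CellTiter-Glo 2.0 luminescence readings, normalised to vehicle (0.1% DMSO) and cell-killing control wells, from HPV-negative HNSCC cell lines seeded at 500 cells/well in 384-well plates. Cells sat on plastic, on Matrigel or Myogel coatings (500 µg/mL), or within Matrigel or Myogel plus rat collagen I, and received compounds at five 10-fold concentrations for 3 days.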

UT-SCC-14 [3] = assay: as above
Procedure, shortened: as §2

UT-SCC-24B = assay: as above
Procedure, shortened: as §2

UT-SCC-28 = assay: as above
Procedure, shortened: as §2

UT-SCC-40 = assay: as above
Procedure, shortened: as §2

UT-SCC-42A [4] = assay: as above
Procedure, shortened: as §2

UT-SCC-42B [5] = assay: as above
Procedure, shortened: as §2

UT-SCC-44 [6] = assay: as above
Procedure, shortened: as §2

UT-SCC-73 [7] = assay: as above
Procedure, shortened: as §2

UT-SCC-81 = assay: as above
Procedure, shortened: as §2

UT-SCC-8 [8] = assay: as above
Procedure, shortened: as §2

UT-SCC-106A [9] = assay: relative IC50 (midpoint of the fitted curve; maximal inhibition may be below 50%); higher = less potent
Procedure, shortened: as §2

UT-SCC-14 [10] = assay: as above
Procedure, shortened: as §2

UT-SCC-42A [11] = assay: as above
Procedure, shortened: as §2

UT-SCC-42B [12] = assay: as above
Procedure, shortened: as §2

UT-SCC-44 [13] = assay: as above
Procedure, shortened: as §2

UT-SCC-73 [14] = assay: as above
Procedure, shortened: as §2

UT-SCC-8 [15] = assay: as above
Procedure, shortened: as §2

UT-SCC-24A [16] = assay: relative IC50 (midpoint of the fitted curve; maximal inhibition may be below 50%); higher = less potent
Experimental: as §1

[17] = culture condition: embedded in Matrigel
[18] = culture condition: embedded in Myogel + collagen I
[19] = culture condition: on top of Matrigel
[20] = culture condition: on top of Myogel
[21] = culture condition: plastic 2D (no matrix)

COc1ncc(-c2ccc3nccc(-c4ccnnc4)c3c2)cc1NS(=O)(=O)c1ccc(F)cc1F [Omipalisib]
maximal % inhibition of viability (UT-SCC-24A [1]; [17]): 95.2 ± 1.4%
maximal % inhibition of viability (UT-SCC-24A [1]; [18]): 89.2 ± 1.7%
maximal % inhibition of viability (UT-SCC-24A [1]; [19]): 92 ± 1.5%
maximal % inhibition of viability (UT-SCC-24A [1]; [20]): 85.8 ± 0.99%
maximal % inhibition of viability (UT-SCC-24A [1]; [21]): 91.6 ± 0.95%
drug sensitivity score (UT-SCC-106A [2]; [17]): 22.8 ± 0.99 DSS
drug sensitivity score (UT-SCC-106A [2]; [18]): 15.4 ± 0.89 DSS
drug sensitivity score (UT-SCC-106A [2]; [19]): 22.33 ± 0.15 DSS
drug sensitivity score (UT-SCC-106A [2]; [20]): 15 ± 1.2 DSS
drug sensitivity score (UT-SCC-106A [2]; [21]): 21.9 ± 0.46 DSS
drug sensitivity score (UT-SCC-14 [3]; [17]): 25.2 ± 1.2 DSS
drug sensitivity score (UT-SCC-14 [3]; [18]): 20.9 ± 3.1 DSS
drug sensitivity score (UT-SCC-14 [3]; [19]): 23.8 ± 0.57 DSS
drug sensitivity score (UT-SCC-14 [3]; [20]): 20.6 ± 0.78 DSS
drug sensitivity score (UT-SCC-14 [3]; [21]): 23.7 ± 2.6 DSS
drug sensitivity score (UT-SCC-24B; [17]): 22.3 ± 0.72 DSS
drug sensitivity score (UT-SCC-24B; [18]): 22.9 ± 1.3 DSS
drug sensitivity score (UT-SCC-24B; [19]): 21.7 ± 0.58 DSS
drug sensitivity score (UT-SCC-24B; [20]): 19.4 ± 0.7 DSS
drug sensitivity score (UT-SCC-24B; [21]): 21.6 ± 0.49 DSS
drug sensitivity score (UT-SCC-28; [17]): 18.7 ± 3.2 DSS
drug sensitivity score (UT-SCC-28; [18]): 18.7 ± 1.8 DSS
drug sensitivity score (UT-SCC-28; [19]): 18.1 ± 1.6 DSS
drug sensitivity score (UT-SCC-28; [21]): 16.8 ± 0.21 DSS
drug sensitivity score (UT-SCC-40; [17]): 27.3 ± 0.47 DSS
drug sensitivity score (UT-SCC-40; [18]): 21.5 ± 0.32 DSS
drug sensitivity score (UT-SCC-40; [19]): 26.4 ± 0.84 DSS
drug sensitivity score (UT-SCC-40; [20]): 19.2 ± 1.1 DSS
drug sensitivity score (UT-SCC-40; [21]): 20.6 ± 0.46 DSS
drug sensitivity score (UT-SCC-42A [4]; [17]): 20.8 ± 3.1 DSS
drug sensitivity score (UT-SCC-42A [4]; [18]): 18.2 ± 0.85 DSS
drug sensitivity score (UT-SCC-42A [4]; [19]): 21.1 ± 2.2 DSS
drug sensitivity score (UT-SCC-42A [4]; [20]): 18.6 ± 0.96 DSS
drug sensitivity score (UT-SCC-42A [4]; [21]): 21.6 ± 2.3 DSS
drug sensitivity score (UT-SCC-42B [5]; [17]): 24.7 ± 1.2 DSS
drug sensitivity score (UT-SCC-42B [5]; [19]): 18.3 ± 1.2 DSS
drug sensitivity score (UT-SCC-42B [5]; [20]): 14.1 ± 1.2 DSS
drug sensitivity score (UT-SCC-42B [5]; [21]): 15.2 ± 0.4 DSS
drug sensitivity score (UT-SCC-44 [6]; [17]): 15.7 ± 2.2 DSS
drug sensitivity score (UT-SCC-44 [6]; [18]): 13.9 ± 1.6 DSS
drug sensitivity score (UT-SCC-44 [6]; [19]): 14 ± 1.9 DSS
drug sensitivity score (UT-SCC-44 [6]; [20]): 14.2 ± 2 DSS
drug sensitivity score (UT-SCC-44 [6]; [21]): 12.4 ± 0.21 DSS
drug sensitivity score (UT-SCC-73 [7]; [17]): 24.13 ± 0.21 DSS
drug sensitivity score (UT-SCC-73 [7]; [18]): 23.1 ± 3.8 DSS
drug sensitivity score (UT-SCC-73 [7]; [19]): 23.83 ± 0.15 DSS
drug sensitivity score (UT-SCC-73 [7]; [20]): 21.6 ± 0.47 DSS
drug sensitivity score (UT-SCC-73 [7]; [21]): 22.2 ± 0.8 DSS
drug sensitivity score (UT-SCC-81; [17]): 28.53 ± 0.15 DSS
drug sensitivity score (UT-SCC-81; [18]): 21.9 ± 1.9 DSS
drug sensitivity score (UT-SCC-81; [19]): 26.8 ± 0.32 DSS
drug sensitivity score (UT-SCC-81; [20]): 21 ± 0.1 DSS
drug sensitivity score (UT-SCC-81; [21]): 22.6 ± 1.5 DSS
drug sensitivity score (UT-SCC-8 [8]; [17]): 27.5 ± 1 DSS
drug sensitivity score (UT-SCC-8 [8]; [18]): 24.1 ± 4.4 DSS
drug sensitivity score (UT-SCC-8 [8]; [19]): 24.5 ± 0.1 DSS
drug sensitivity score (UT-SCC-8 [8]; [20]): 23.7 ± 0.44 DSS
drug sensitivity score (UT-SCC-8 [8]; [21]): 25 ± 0.83 DSS
relative IC50 (UT-SCC-106A [9]; [17]): 4.51 nM
relative IC50 (UT-SCC-106A [9]; [18]): 10.1 nM
relative IC50 (UT-SCC-106A [9]; [19]): 5.7 nM
relative IC50 (UT-SCC-106A [9]; [20]): 15.6 nM
relative IC50 (UT-SCC-106A [9]; [21]): 5.69 nM
relative IC50 (UT-SCC-14 [10]; [17]): 5.67 nM
relative IC50 (UT-SCC-14 [10]; [19]): 8.29 nM
relative IC50 (UT-SCC-14 [10]; [20]): 11.2 nM
relative IC50 (UT-SCC-14 [10]; [21]): 6.77 nM
relative IC50 (UT-SCC-42A [11]; [17]): 15.6 nM
relative IC50 (UT-SCC-42A [11]; [18]): 16.6 nM
relative IC50 (UT-SCC-42A [11]; [19]): 13.2 nM
relative IC50 (UT-SCC-42A [11]; [20]): 16.4 nM
relative IC50 (UT-SCC-42A [11]; [21]): 11.5 nM
relative IC50 (UT-SCC-42B [12]; [17]): 6.88 nM
relative IC50 (UT-SCC-42B [12]; [19]): 19.3 nM
relative IC50 (UT-SCC-42B [12]; [20]): 36.6 nM
relative IC50 (UT-SCC-42B [12]; [21]): 31.4 nM
relative IC50 (UT-SCC-44 [13]; [18]): 10.4 nM
relative IC50 (UT-SCC-44 [13]; [19]): 5.9 nM
relative IC50 (UT-SCC-44 [13]; [20]): 9.17 nM
relative IC50 (UT-SCC-44 [13]; [21]): 14.4 nM
relative IC50 (UT-SCC-73 [14]; [17]): 6.73 nM
relative IC50 (UT-SCC-73 [14]; [19]): 6.72 nM
relative IC50 (UT-SCC-73 [14]; [20]): 9.27 nM
relative IC50 (UT-SCC-73 [14]; [21]): 8.51 nM
relative IC50 (UT-SCC-8 [15]; [17]): 5.05 nM
relative IC50 (UT-SCC-8 [15]; [19]): 7.5 nM
relative IC50 (UT-SCC-8 [15]; [20]): 8.01 nM
relative IC50 (UT-SCC-8 [15]; [21]): 6.97 nM
relative IC50 (UT-SCC-24A [16]; [17]): 4.17 nM
relative IC50 (UT-SCC-24A [16]; [18]): 7 nM
relative IC50 (UT-SCC-24A [16]; [19]): 5.02 nM
relative IC50 (UT-SCC-24A [16]; [20]): 10.1 nM
relative IC50 (UT-SCC-24A [16]; [21]): 5.44 nM
